Experiment: xn = mol fraction of the nth substance listed
Conditions: for electrical conductivity: frequency 0.01 MHz

CC1CCC(=O)O1 (stereo not given) + CCCC[n+]1ccn(C)c1.O=S(=O)([N-]S(=O)(=O)C(F)(F)F)C(F)(F)F
electrical conductivity [S/m], 100 kPa
Conditions	293.15 K	298.15 K	303.15 K	308.15 K	313.15 K	318.15 K	323.15 K
x2 = 0.0505	0.666	0.719	0.785	0.849	0.914	0.986	1.05
x2 = 0.1001	1.01	1.11	1.21	1.31	1.42	1.54	1.67
x2 = 0.1492	1.11	1.21	1.32	1.45	1.58	1.73	1.87
x2 = 0.1998	1.1	1.21	1.34	1.48	1.62	1.77	1.92
x2 = 0.3008	0.993	1.1	1.22	1.36	1.5	1.64	1.79
x2 = 0.4031	0.816	0.913	1.02	1.13	1.25	1.38	1.51
x2 = 0.5048	0.677	0.762	0.854	0.96	1.07	1.19	1.31
x2 = 0.6031	0.561	0.636	0.72	0.818	0.918	1.03	1.16
x2 = 0.6973	0.476	0.544	0.623	0.712	0.81	0.918	1.03
x2 = 0.7994	0.394	0.457	0.531	0.612	0.703	0.807	0.919
x2 = 0.8711	0.364	0.425	0.498	0.575	0.663	0.763	0.869

COC(=O)OC + CCCC[n+]1ccn(C)c1.O=S(=O)([N-]S(=O)(=O)C(F)(F)F)C(F)(F)F
viscosity [mPa·s], 101.3 kPa
Conditions	288.15 K	293.15 K	298.15 K	303.15 K	308.15 K	313.15 K
x2 = 0	0.668	0.628	0.588	0.553	0.524	–
x2 = 0.003644	0.699	0.653	0.611	0.575	0.541	0.511
x2 = 0.004269	0.706	0.659	0.616	0.58	0.545	0.515
x2 = 0.005082	0.715	0.667	0.624	0.586	0.551	0.52
x2 = 0.005901	0.722	0.674	0.631	0.593	0.557	0.525
x2 = 0.00751	0.741	0.69	0.646	0.606	0.57	0.537
x2 = 0.008724	0.746	0.695	0.651	0.61	0.575	0.541
x2 = 0.009626	0.749	0.7	0.657	0.617	0.583	0.549
x2 = 0.01106	0.781	0.727	0.678	0.636	0.597	0.562
x2 = 0.012	0.792	0.737	0.687	0.644	0.605	0.57
x2 = 0.01269	0.801	0.744	0.695	0.651	0.61	0.576
x2 = 0.01439	0.817	0.759	0.708	0.663	0.621	0.586
x2 = 0.01534	0.827	0.768	0.717	0.671	0.629	0.592
x2 = 0.01537	0.827	0.768	0.717	0.671	0.629	0.592
x2 = 0.01726	0.847	0.786	0.734	0.686	0.643	0.604
x2 = 0.01986	0.874	0.811	0.755	0.706	0.662	0.621
x2 = 0.02243	0.902	0.836	0.778	0.728	0.681	0.641
x2 = 0.02369	0.914	0.847	0.788	0.736	0.689	0.648
x2 = 0.02616	0.937	0.869	0.808	0.754	0.706	0.663
x2 = 0.02694	0.945	0.876	0.814	0.759	0.711	0.668
x2 = 0.02906	0.968	0.897	0.834	0.778	0.728	0.683
x2 = 0.03392	1.016	0.94	0.873	0.814	0.76	0.714
x2 = 0.03978	1.072	0.991	0.921	0.857	0.802	0.751
x2 = 0.04295	1.102	1.019	0.945	0.88	0.822	0.77
x2 = 0.04638	1.134	1.048	0.971	0.904	0.845	0.791

N + CCCC[n+]1ccn(C)c1.O=S(=O)([N-]S(=O)(=O)C(F)(F)F)C(F)(F)F
313.2 K, 101 kPa
Conditions	viscosity [mPa·s]
x2 = 0.7997	20.1
x2 = 0.8338	21.7
x2 = 0.8696	22
x2 = 0.9099	23.1
x2 = 0.9541	25.1

c1ccsc1 + CCCC[n+]1ccn(C)c1.O=S(=O)([N-]S(=O)(=O)C(F)(F)F)C(F)(F)F
viscosity [mPa·s], 100 kPa
Conditions	x1 = 0.089	x1 = 0.276	x1 = 0.561	x1 = 1
298.15 K	–	–	14.73	0.655
308.15 K	29	18.8	–	–

CN(C)c1ccccc1 + CCCC[n+]1ccn(C)c1.O=S(=O)([O-])C(F)(F)F
100 kPa
Conditions	viscosity [mPa·s]
288.15 K, x1 = 0.2998	54
288.15 K, x1 = 0.397	39.3
288.15 K, x1 = 0.6997	10.05
288.15 K, x1 = 1	1.536
293.15 K, x1 = 1	1.415
298.15 K, x1 = 0.397	25.9
298.15 K, x1 = 0.8945	2.63
308.15 K, x1 = 0.2	30.7
313.15 K, x1 = 0.2	25.2
313.15 K, x1 = 0.6997	5.03
318.15 K, x1 = 0.1	27.1
318.15 K, x1 = 0.6997	4.54
318.15 K, x1 = 0.8945	1.828
323.15 K, x1 = 1	0.92
328.15 K, x1 = 0.1	19.6
328.15 K, x1 = 0.8945	1.569
333.15 K, x1 = 0.1	16.91
333.15 K, x1 = 0.5045	6.71
333.15 K, x1 = 0.8945	1.463

N[C@@H](Cc1ccccc1)C(=O)O + CCCC[n+]1ccn(C)c1.[Br-] + O
viscosity [mPa·s], 101.3 kPa
Conditions	x1 = 0.0003605, x2 = 0	x1 = 0.0007251, x2 = 0	x1 = 0.001079, x2 = 0	x1 = 0.001441, x2 = 0	x1 = 0.001797, x2 = 0	x1 = 0.00216, x2 = 0	x1 = 0.002516, x2 = 0
293.15 K	1.01	1.02	1.03	1.05	1.06	1.08	1.09
298.15 K	0.8	0.81	0.83	0.84	0.85	0.87	0.88
303.15 K	0.71	0.72	0.74	0.75	0.76	0.78	0.79
308.15 K	0.63	0.64	0.66	0.67	0.68	0.7	0.71
313.15 K	0.57	0.58	0.59	0.6	0.62	0.63	0.64

O=C1O[C@H]([C@@H](O)CO)C(O)=C1O + CCCC[n+]1ccn(C)c1.[Br-] + O
viscosity [mPa·s], 100 kPa
Conditions	293.15 K	298.15 K	303.15 K	308.15 K	313.15 K	318.15 K
x1 = 0.0003765, x2 = 0	1.008	0.898	0.804	0.725	0.66	0.607
x1 = 0.0007293, x2 = 0	1.013	0.903	0.809	0.73	0.665	0.612
x1 = 0.001087, x2 = 0	1.017	0.908	0.814	0.735	0.67	0.617
x1 = 0.001456, x2 = 0	1.023	0.914	0.819	0.74	0.674	0.621
x1 = 0.001827, x2 = 0	1.028	0.919	0.825	0.745	0.679	0.626
x1 = 0.002192, x2 = 0	1.035	0.924	0.831	0.75	0.684	0.632

COC(=O)OC + CCCCn1cc[n+](C)c1C.O=S(=O)([N-]S(=O)(=O)C(F)(F)F)C(F)(F)F
101.3 kPa, x2 = 0
Conditions	viscosity [mPa·s]
288.15 K	0.668
293.15 K	0.628
298.15 K	0.588
303.15 K	0.553
308.15 K	0.524
313.15 K	0.498

CCC(=O)[O-].CC[NH+]1CCNCC1 + CCCO
101 kPa
Conditions	viscosity [mPa·s]
298.15 K, x2 = 0.4017	47.45
308.15 K, x2 = 0.3041	39.45

CCCCCCCCn1cc[n+](C)c1.[Cl-] + CCCO
101 kPa
Conditions	viscosity [mPa·s]
298.15 K, x2 = 0	21000
298.15 K, x2 = 0.7248	19.25
298.15 K, x2 = 0.9024	4.6
313.15 K, x2 = 0.407	160
328.15 K, x2 = 0	1091
328.15 K, x2 = 0.1071	560
328.15 K, x2 = 0.2407	231
328.15 K, x2 = 0.3036	144
328.15 K, x2 = 0.6209	17.73
328.15 K, x2 = 0.7248	8.25
328.15 K, x2 = 0.94	1.679
328.15 K, x2 = 0.9729	1.372

CC[n+]1ccn(C)c1.N#C[S-] + CCCO
viscosity [mPa·s], 101 kPa
Conditions	283.15 K	293.15 K	303.15 K	313.15 K	323.15 K
x1 = 0.0494	3.32	2.6	2.07	1.68	1.38
x1 = 0.0994	4.04	3.12	2.47	1.99	1.63
x1 = 0.1997	5.49	4.24	3.4	2.63	2.17
x1 = 0.3015	7.06	5.36	4.21	3.42	2.87
x1 = 0.3996	9.09	6.89	5.39	4.34	3.58
x1 = 0.4986	12.1	9.09	7.06	5.65	4.64
x1 = 0.5998	15.89	11.72	8.97	7.08	5.66
x1 = 0.7008	20.24	14.76	10.88	8.47	6.81
x1 = 0.8005	25.11	17.87	13.31	10.27	8.17
x1 = 0.9002	30.71	21.99	16.11	12.25	9.62
x1 = 0.946	34.98	24.14	17.68	13.52	10.63
x1 = 1	38.41	26.31	19.03	14.3	11.1

Source: the CheMixHub ionic liquid set
